Structures can show the parent of a compound that is named as a salt. Where two headings read alike, the source gives them in different places.
Target: rat TRPV1 (Rattus norvegicus (Rat), UniProt O35433)
Details: read-out: Rat IC50

rat TRPV1, sequence (O35433 whole entry): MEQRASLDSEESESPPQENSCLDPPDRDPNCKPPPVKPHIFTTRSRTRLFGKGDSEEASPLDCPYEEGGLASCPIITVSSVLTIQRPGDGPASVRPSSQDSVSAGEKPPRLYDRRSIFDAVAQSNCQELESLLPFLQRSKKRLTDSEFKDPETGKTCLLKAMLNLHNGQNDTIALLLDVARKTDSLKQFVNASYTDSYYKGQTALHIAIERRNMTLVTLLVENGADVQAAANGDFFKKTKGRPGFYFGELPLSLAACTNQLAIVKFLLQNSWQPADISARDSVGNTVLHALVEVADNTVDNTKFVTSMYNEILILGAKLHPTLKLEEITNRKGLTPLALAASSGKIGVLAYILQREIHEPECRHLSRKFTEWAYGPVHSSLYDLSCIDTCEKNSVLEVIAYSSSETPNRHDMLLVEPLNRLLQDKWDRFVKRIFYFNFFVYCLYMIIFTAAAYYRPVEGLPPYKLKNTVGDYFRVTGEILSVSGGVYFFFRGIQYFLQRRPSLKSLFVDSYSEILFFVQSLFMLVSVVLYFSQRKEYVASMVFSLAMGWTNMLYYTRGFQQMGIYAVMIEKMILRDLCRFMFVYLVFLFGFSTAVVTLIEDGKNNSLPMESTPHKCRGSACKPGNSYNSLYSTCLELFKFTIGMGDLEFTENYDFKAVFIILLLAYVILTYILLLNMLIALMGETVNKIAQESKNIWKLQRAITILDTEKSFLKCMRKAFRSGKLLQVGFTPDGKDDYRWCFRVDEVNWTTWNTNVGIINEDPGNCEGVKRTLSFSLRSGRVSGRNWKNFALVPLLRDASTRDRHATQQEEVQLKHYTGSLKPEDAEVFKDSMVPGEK

SMILES | IC50 | IC50 (hydrochloride salt)
CC(C)(C)c1ccc(Nc2ncnc3c2CCN(c2ncccc2C(F)(F)F)CC3)cc1 [Example 1, (4-tert-Butyl-phenyl)-[7-(3-trifluoromethyl-pyridin-2-yl)-6,7,8,9-tetrahydro-5H-pyrimido[4,5-d]azepin-4-yl]-amine] | 90 nM | –
CC(C)(C)c1ccc(Nc2ncnc3c2CCN(c2ncccc2C(F)(F)F)CC3)cc1 [Example 1A, (4-tert-Butyl-phenyl)-[7-(3-trifluoromethyl-pyridin-2-yl)-6,7,8,9-tetrahydro-5H-pyrimido[4,5-d]azepin-4-yl]-amine hydrochloride salt] | – | 49 nM
FC(F)(F)c1ccc(Nc2ncnc3c2CCN(c2ncccc2C(F)(F)F)CC3)cc1 [Example 2, (4-Trifluoromethyl-phenyl)-[7-(3-trifluoromethyl-pyridin-2-yl)-6,7,8,9-tetra-hydro-5H-pyrimido[4,5-d]azepin-4-yl]-amine] | 790 nM | –
FC(F)(F)c1ccc(Nc2ncnc3c2CCN(c2ncccc2C(F)(F)F)CC3)cc1 [Example 2A, (4-Trifluoromethyl-phenyl)-[7-(3-trifluoromethyl-pyridin-2-yl)-6,7,8,9-tetra-hydro-5H-pyrimido[4,5-d]azepin-4-yl]-amine hydrochloride salt] | – | 420 nM
CC(C)(C)c1ccc(Nc2nc(C3CC3)nc3c2CCN(c2ncccc2C(F)(F)F)CC3)cc1 [Example 3, (4-tert-Butyl-phenyl)-[2-cyclopropyl-7-(3-trifluoromethyl-pyridin-2-yl)-6,7,8,9-tetrahydro-5H-pyrimido[4,5-d]azepin-4-yl]-amine] | 95 nM | –
FC(F)(F)c1cccnc1N1CCc2nc(C3CC3)nc(Nc3ccc(Cl)cc3)c2CC1 [Example 4, (4-Chloro-phenyl)-[2-cyclopropyl-7-(3-trifluoromethyl-pyridin-2-yl)-6,7,8,9-tetrahydro-5H-pyrimido[4,5-d]azepin-4-yl]-amine] | 500 nM | –
FC(F)(F)c1ccc(Nc2nc(C3CC3)nc3c2CCN(c2ncccc2C(F)(F)F)CC3)cc1 [Example 5, [2-Cyclopropyl-7-(3-trifluoromethyl-pyridin-2-yl)-6,7,8,9-tetrahydro-5H-pyrimido[4,5-d]azepin-4-yl]-(4-trifluoromethyl-phenyl)-amine] | 150 nM | –
FC(F)(F)c1ccc(Nc2nc(C3CC3)nc3c2CCN(c2ncccc2C(F)(F)F)CC3)cc1 [Example 5A, [2-Cyclopropyl-7-(3-trifluoromethyl-pyridin-2-yl)-6,7,8,9-tetrahydro-5H-pyrimido[4,5-d]azepin-4-yl]-(4-trifluoromethyl-phenyl)-amine hydrochloride salt] | – | 190 nM
CC(C)(C)c1ccc(Nc2nc(-c3ccccc3)nc3c2CCN(c2ncccc2C(F)(F)F)CC3)cc1 [Example 6, (4-tert-Butyl-phenyl)-[2-phenyl-7-(3-trifluoromethyl-pyridin-2-yl)-6,7,8,9-tetrahydro-5H-pyrimido[4,5-d]azepin-4-yl]-amine] | 490 nM | –
FC(F)(F)c1ccc(Nc2nc(-c3ccccc3)nc3c2CCN(c2ncccc2C(F)(F)F)CC3)cc1 [Example 7, [2-Phenyl-7-(3-trifluoromethyl-pyridin-2-yl)-6,7,8,9-tetrahydro-5H-pyrimido[4,5-d]azepin-4-yl]-(4-trifluoromethyl-phenyl)-amine] | 140 nM | –
CC(C)c1nc2c(c(Nc3ccc(C(C)(C)C)cc3)n1)CCN(c1ncccc1C(F)(F)F)CC2 [Example 8, (4-tert-Butyl-phenyl)-[2-isopropyl-7-(3-trifluoromethyl-pyridin-2-yl)-6,7,8,9-tetrahydro-5H-pyrimido[4,5-d]azepin-4-yl]-amine] | 25 nM | –
CC(C)c1nc2c(c(Nc3cccc(C(F)(F)F)c3)n1)CCN(c1ncccc1C(F)(F)F)CC2 [Example 10, [2-Isopropyl-7-(3-trifluoromethyl-pyridin-2-yl)-6,7,8,9-tetrahydro-5H-pyrimido[4,5-d]azepin-4-yl]-(3-trifluoromethyl-phenyl)-amine] | 930 nM | –
CC(C)c1nc2c(c(NCCc3ccc(F)cc3)n1)CCN(c1ncccc1C(F)(F)F)CC2 [Example 12, [2-(4-Fluoro-phenyl)-ethyl]-[2-isopropyl-7-(3-trifluoromethyl-pyridin-2-yl)-6,7,8,9-tetrahydro-5H-pyrimido[4,5-d]azepin-4-yl]-amine] | 950 nM | –
Cc1nc2c(c(Nc3ccc(C(C)(C)C)cc3)n1)CCN(c1ncccc1C(F)(F)F)CC2 [Example 15, (4-tert-Butyl-phenyl)-[2-methyl-7-(3-trifluoromethyl-pyridin-2-yl)-6,7,8,9-tetrahydro-5H-pyrimido[4,5-d]azepin-4-yl]-amine] | 46 nM | –
Cc1nc2c(c(Nc3ccc(C(F)(F)F)cc3)n1)CCN(c1ncccc1C(F)(F)F)CC2 [Example 16, [2-Methyl-7-(3-trifluoromethyl-pyridin-2-yl)-6,7,8,9-tetrahydro-5H-pyrimido-[4,5-d]azepin-4-yl]-(4-trifluoromethyl-phenyl)-amine] | 100 nM | –
FC(F)(F)c1ccc(Nc2nc(C3CC3)nc3c2CCN(c2ncccc2C(F)(F)F)CC3)nc1 [Example 19, [2-Cyclopropyl-7-(3-trifluoromethyl-pyridin-2-yl)-6,7,8,9-tetrahydro-5H-pyrimido[4,5-d]azepin-4-yl]-(5-trifluoromethyl-pyridin-2-yl)-amine] | 510 nM | –
CC(C)c1nc2c(c(Nc3ccc(C(F)(F)F)cn3)n1)CCN(c1ncccc1C(F)(F)F)CC2 [Example 20, [2-Isopropyl-7-(3-trifluoromethyl-pyridin-2-yl)-6,7,8,9-tetrahydro-5H-pyrimido[4,5-d]azepin-4-yl]-(5-trifluoromethyl-pyridin-2-yl)-amine] | 32 nM | –
CC(C)c1nc2c(c(Nc3ccc(C(F)(F)F)cn3)n1)CCN(c1ncccc1C(F)(F)F)CC2 [Example 20A, [2-Isopropyl-7-(3-trifluoromethyl-pyridin-2-yl)-6,7,8,9-tetrahydro-5H-pyrimido[4,5-d]azepin-4-yl]-(5-trifluoromethyl-pyridin-2-yl)-amine hydrochloride salt] | – | 250 nM
CC(C)c1nc2c(c(Nc3cnc4ccccc4c3)n1)CCN(c1ncccc1C(F)(F)F)CC2 [Example 21, [2-Isopropyl-7-(3-trifluoromethyl-pyridin-2-yl)-6,7,8,9-tetrahydro-5H-pyrimido[4,5-d]azepin-4-yl]-quinolin-3-yl-amine] | 1100 nM | –
FC(F)(F)c1ccc(Nc2nc(-c3ccccc3)nc3c2CCN(c2ncccc2C(F)(F)F)CC3)nc1 [Example 22, [2-Phenyl-7-(3-trifluoromethyl-pyridin-2-yl)-6,7,8,9-tetrahydro-5H-pyrimido[4,5-d]azepin-4-yl]-(5-trifluoromethyl-pyridin-2-yl)-amine] | 130 nM | –
CC(C)c1nc2c(c(Nc3ccc(C(F)(F)F)nc3)n1)CCN(c1ncccc1C(F)(F)F)CC2 [Example 23, [2-Isopropyl-7-(3-trifluoromethyl-pyridin-2-yl)-6,7,8,9-tetrahydro-5H-pyrimido[4,5-d]azepin-4-yl]-(6-trifluoromethyl-pyridin-3-yl)-amine] | 310 nM | –
CC(C)c1nc2c(c(Nc3ccc(Oc4ccccc4)cc3)n1)CCN(c1ncccc1C(F)(F)F)CC2 [Example 25, [2-Isopropyl-7-(3-trifluoromethyl-pyridin-2-yl)-6,7,8,9-tetrahydro-5H-pyrimido[4,5-d]azepin-4-yl]-(4-phenoxy-phenyl)-amine] | 770 nM | –

From patent publication US9422293B2 (priority 2006, dated 2016)
